Consider 15 molecules from patent publication US8629239B2, “Methylocystis strain SB2 materials and methods” (Iowa State University Research Foundation, Inc., priority 2010, dated 2014).

The conditions of data set [1]: dimensionless, at 30° C.; cited from earlier work.
Data set [2] concerns Methylocystis strain SB2. The experiment in a line: Degradation of chlorinated hydrocarbons by Methylocystis strain SB2 grown on ethanol or methane. The settings on record: individual chlorinated hydrocarbons. It is filed as cell-based. The method, then: The ability of Methylocystis strain SB2 to degrade chlorinated hydrocarbon, including trichloroethylene (TCE), trans-dichloroethylene (t-DCE), vinyl chloride (VC), 1,1,1-trichloroethane (1,1,1-TCA), dichloromethane (DCM), and chloroform (CF), was compared when Methylocystis strain SB2 was grown on ethanol relative to when it was grown with methane.

For data set [3], the system named is Methylocystis strain SB2. The experiment in a line: Nitrogen source utilization by strain SB2 with methane as carbon source. Type of data set: cell-based. The settings on record: methane as the carbon source. The method, then: Many nitrogen sources were tested with methane as the carbon source: nitrate (as potassium nitrate), ammonia (as ammonium chloride), L-alanine, L-serine, L-isoluecine, L-proline, L-methionine, L-glutamine, L-asparagine, L-lysine, L-glycine, L-histidine, and L-arginine. […] The presence of nifH was confirmed using PCR using specific primers for nifH (Auman, et al., 2001; Zehr & McReynolds, 1989).

Data set [4] concerns Methylocystis strain SB2. The experiment in a line: Degradation of chlorinated ethenes by Methylocystis strain SB2 grown on methane or acetate. Type of data set: cell-based. To be noted: SB2 grown on CH3COOH + C2H2 (acetylene); 40 μM each of TCE, t-DCE, and VC; 216 hours.
Protocol: Saturated stock solutions were prepared for TCE and t-DCE as described by Chang and Alvarez-Cohen (1996). Hamilton 1700 series gas-tight syringes (Hamilton, Reno, Nev.) were used to take aliquots from the stock solutions. Gaseous compounds, i.e., methane and VC, were transferred to gas bags before use. Aliquots were taken with Precision Lok gas-tight syringes purchased from Precision Sampling Corp (Baton Rouge, La.). The amount of chlorinated solvents to be added was calculated considering dimensionless Henry's constants at 30° C. […]
The method used previously by Lee et al. (2006) and Yoon and Semrau (2008) was slightly modified for these assays. […] The growth of Methylocystis strain SB2 was monitored until the cell growth was no longer observed. The initial and final concentration of TCE, t-DCE, and VC were measured with HP5890 Series II gas chromatograph equipped with a 75 m DB-624 column with 0.53 mm internal diameter (J&W Scientific Co.). […] TCE and t-DCE were detected with an electron capture detector (ECD) with injector, oven, and detector temperatures set to 160, 120, and 250° C., respectively. VC was detected with a flame ionization detector (FID) with injector, oven, and detector temperatures set to 140, 120, and 250° C., respectively.
The test system of data set [5] is Methylosinus trichosporium OB3b expressing pMMO. To be noted: 50 μM each of VC, t-DCE, and TCE; 110 hours of growth on methane; Lee et al., 2006; cited from earlier work.
Data set [6] is described as follows: Abiotic loss of chlorinated ethenes from serum vials with sterile NMS medium. It is filed as physicochemical. The settings on record: 40 μM each in 5 ml sterile NMS medium; 216 hours. As to the method:
Growth and degradation of chlorinated solvents. The growth of Methylocystis strain SB2 and degradation of the mixture of TCE, t-DCE, and VC were measured in three different conditions: methane, acetate, and acetate with acetylene (a selective inhibitor of both MMOs) (Prior and Dalton, 1985). The method used previously by Lee et al. (2006) and Yoon and Semrau (2008) was slightly modified for these assays. For all three growth conditions, Methylocystis strain SB2 was initially grown on methane to the mid-exponential phase (OD600 nm of 0.3-0.4). This cell suspension was flushed with compressed air as described above to remove residual methane and diluted to OD600<0.03 in 50 ml of fresh media in 250 ml Erlenmeyer flask. For growth on methane, methane was added to the headspace to an air:methane ratio of 1:1 and the cells were grown back to an OD600 of ca. 0.06. After the flask was flushed with compressed air as described earlier, five milliliter aliquots were transferred to serum vials specially fabricated to measure growth at OD600 over time as described earlier (Lee et al., 2006). Teflon-coated butyl-rubber stoppers (National Scientific Co., Duluth, Ga.) were used to seal the serum vials. After the serum vials were securely sealed, 5 ml of the air in headspace was replaced with 5 ml of methane to ensure sufficient methane for growth. For growth on acetate, 1 mM of sodium acetate (Im et al., 2010) instead of methane was added to the diluted cell suspension in 250-ml Erlenmeyer flasks. […] The growth of Methylocystis strain SB2 was monitored until the cell growth was no longer observed. The initial and final concentration of TCE, t-DCE, and VC were measured with HP5890 Series II gas chromatograph equipped with a 75 m DB-624 column with 0.53 mm internal diameter (J&W Scientific Co.). […] TCE and t-DCE were detected with an electron capture detector (ECD) with injector, oven, and detector temperatures set to 160, 120, and 250° C., respectively. VC was detected with a flame ionization detector (FID) with injector, oven, and detector temperatures set to 140, 120, and 250° C., respectively.

Data set [7] has as its system Methylocapsa aurea KYGT. The settings on record: growth on acetate; cited from earlier work.
Data set [8] deals with Methylocystis heyeri H2T. The settings on record: growth on acetate; Belova et al., 2010; cited from earlier work.
Data set [9] relates to Methylocystis echinoides IMET 10491T. To be noted: growth on acetate; Belova et al., 2010; cited from earlier work.
The test system of data set [10] is Methylocystis strain SB2. The experiment in a line: Growth yield and carbon conversion efficiency, Methylocystis strain SB2. Type of data set: cell-based. To be noted: NMS, 10 μM copper, standard error in parentheses. As to the method:
For Table 1, the molar growth yield (g dry cell▪(mol substrate^−1)) and the efficiency of carbon conversion to cell material (g cell carbon▪(g substrate carbon)^−1) were determined in triplicate 5 ml of NMS medium supplemented with 10 μM of copper as CuCl2 using specially constructed 32.5 ml vials containing a CH4/air mixture (1:2 ratio in the headspace), or 0.10% (w/v) of sodium acetate as a sole carbon source. CH4 and acetate concentrations were measured using gas chromatography equipped with a FID (HP 5890 Series II) and ion chromatography (Dionex DX100, Sunnyvale, Calif.), respectively. Cell growth was monitored by measuring OD600 using a Spectronic-20 spectrometer (Milton Roy Company, USA). Turbidity was correlated to protein concentration using the Bio-Rad Protein Assay (Bio-Rad Laboratories, Richmond, Calif.) with bovine serum albumin (BSA) as the standard following manufacturer's instructions. To estimate the carbon content of biomass it was assumed that dry biomass was 50% protein, and C4H8O2N was the biomass elemental composition (Leak and Dalton, 1986).

The test system of data set [11] is Methylocystis strain SB2. The experiment in a line: Growth of Methylocystis strain SB2 on carbon sources. Type of data set: cell-based. To be noted: for OD600 reached (final / max OD600) / growth rate: NMS medium, 10 μM copper, 30° C.; for growth on substrate as carbon source: substrates 0.05%, methanol 0.01-1% (v/v), acetate 0.01-0.5% (w/v), ethanol 0.05-1% (v/v); for growth rate: exponential kinetics. As to the method: Methylocystis strain SB2 was incubated in 50 ml of NMS medium in 250 ml flask supplemented with 10 μM of copper as CuCl2. The flasks were incubated at 30° C. with shaking at 250 rpm. Cell growth was monitored by measuring OD600 using a Spectronic-20 (Milton Roy Company, USA).
Growth of strain SB2 on Alternative Carbon Sources: Growth on methanol (0.05% v/v) and methylamine, glucose, fructose, sucrose, galactose, xylose, arabinose, and maltose (all at a concentration of 0.05% w/v) was tested, as were the organic acids formate, pyruvate, succinate, malate, citrate and oxalate (all added as sodium salts at a concentration of 0.05% w/v).
At this pH, 99% of the added acetate exists as the dissociated form. It is believed that undissociated acetate is transferred across the cell membrane, thus the proton motive force is dissipated to transport acetate into the cell (Axe and Bailey, 1995), which inhibits microbial growth.

In data set [12] the test system is Methylocella silvestris BL2. To be noted: Dedysh, et al. (2005); cited from earlier work.
Data set [13] relates to Methylocystis strain H2s. The settings on record: growth on acetate; Belova et al., 2010; cited from earlier work.
For data set [14], the system named is Methylocystis strain SB2. The experiment in a line: Growth of Methylocystis strain SB2 in the presence of chlorinated ethenes. Type of data set: cell-based. To be noted: grown on methane in the absence of chlorinated ethenes.
Protocol: Methylocystis strain SB2 was initially grown on methane (1:1 methane-to-air ratio) to the mid-exponential phase (OD600 of 0.3-0.4 as measured using a Spectronic 20 spectrometer (Milton Roy Company, USA)). […] The cultures were then diluted to an OD600 of 0.06 with fresh NMS medium. Five ml aliquots were added to serum vials specially fabricated to measure growth as OD600 over time and respective growth substrates were added. For addition of methane, 5 ml of headspace was replaced with >99.99% methane after sealing the vials for a final concentration of 15% v/v in the headspace. […] Growth was monitored by measuring absorbance at 600 nm (OD600).
For all three growth conditions, Methylocystis strain SB2 was initially grown on methane to the mid-exponential phase (OD600 nm of 0.3-0.4). This cell suspension was flushed with compressed air as described above to remove residual methane and diluted to OD600<0.03 in 50 ml of fresh media in 250 ml Erlenmeyer flask. For growth on methane, methane was added to the headspace to an air:methane ratio of 1:1 and the cells were grown back to an OD600 of ca. 0.06. […] The growth of Methylocystis strain SB2 was monitored until the cell growth was no longer observed.

As to `CC(Cl)(Cl)Cl` [1,1,1-TCA, 1,1,1-trichloroethane], the “Henry's constants” value in [1] is 0.804. Also, in [2], the “degradation by strain SB2 grown on ethanol” value (“degradation … on ethanol” for short) is recorded as “degraded” and the “degradation by strain SB2 grown on methane” value (“degradation … on methane” below) is given as “degraded”.

With `ClC(Cl)Cl` [CF, chloroform], the “Henry's constants” value in [1] was 0.189. In addition, in data set [2], the “degradation … on ethanol” value is recorded as “not” and the “degradation … on methane” value is “degraded”.

Turning to `ClCCl` [DCM, dichloromethane], the “Henry's constants” value in data set [1] is on record as 0.125. In addition, in data set [2], the “degradation … on ethanol” value is on record as “not” and the “degradation … on methane” value is reported as “not”.

Regarding `NC(=O)CC[C@H](N)C(=O)O` [L-glutamine], the “utilization as nitrogen source” value in data set [3] is “able to utilize”.

With `CC[C@H](C)[C@H](N)C(=O)O` [L-isoleucine], in [3], the “utilization as nitrogen source” value was “able to utilize”.

Consider `O=C(O)[C@@H]1CCCN1` [L-proline], for which, in data set [3], the “utilization as nitrogen source” value is “able to utilize”.

For the molecule `ClC=C(Cl)Cl` [TCE, trichloroethylene], in [4], the “% Chlorinated ethene degraded (range of duplicate samples)” value came to 3.3%. Also, the “% degraded” value in data set [5] is listed as 35%. For the same molecule, the “Abiotic loss, % (range of duplicate samples)” value (shortened to “Abiotic loss, %”) in data set [6] was 5.2%. In data set [1], the “Henry's constants” value is listed as 0.458. Besides, in data set [2], the “degradation … on ethanol” value is listed as “degraded” and the “degradation … on methane” value is reported as “degraded”.

For the molecule `C=CCl` [VC, vinyl chloride], the “% degraded” value in data set [5] is reported as 97%. For the same molecule, the “Abiotic loss, %” value in data set [6] came to 1.8%. Moreover, the “Henry's constants” value in [1] was 1.262. In data set [2], the “degradation … on ethanol” value was “degraded” and the “degradation … on methane” value is given as “degraded”.

For `CC(=O)O` [acetate], the “max OD600” value in data set [7] is 0.3. Further, the “max OD410” value is 0.14 in data set [8], 0.09 in data set [9] and around 0.23 in [13]. The “Efficiency of carbon conversion” value in data set [10] is 22.1 (±0.2) %; in data set [12] it was 40.1 (±2.43) %. The Growth yield in data set [10] was 12.0 (±0.13) g cell dry weight ▪(mol substrate^−1; in data set [12], 20.5 (±1.24) g cell dry weight ▪(mol substrate^−1. The “OD600 reached (final / max OD600)” value in [11] worked out at 0.26. Also, the “growth on substrate as carbon source” value in [11] is recorded as “grew”.

In the case of `N` [ammonium], in data set [3], the “utilization as nitrogen source” value was “able to utilize”.

On to `CCO` [ethanol], for which, in [11], the “OD600 reached (final / max OD600)” value was 0.45, the growth rate stood at 0.022 ± 0.002 h⁻¹ and the “growth on substrate as carbon source” value is given as “grew”.

With `C` [methane], the specific growth rate in data set [14] is 0.057 h⁻¹. Besides, in [10], the “Efficiency of carbon conversion” value is 12.3 (±0.5) % and the Growth yield is recorded as 3.13 (±0.12) g cell dry weight ▪(mol substrate^−1. Also, in [11], the “OD600 reached (final / max OD600)” value was determined as 0.83 and the growth rate turned out to be 0.052 ± 0.004 h⁻¹. Further, in data set [12], the “Efficiency of carbon conversion” value is 13.2 (±0.698) % and the Growth yield is recorded as 3.59 (±0.104) g cell dry weight ▪(mol substrate^−1.

As for `CO` [methanol], in data set [11], the “growth on substrate as carbon source” value is “no growth”.

With `O=[N+]([O-])O` [nitrate], the “utilization as nitrogen source” value in data set [3] is reported as “able to utilize”.

For the molecule `Cl/C=C/Cl` [t-DCE, trans-dichloroethylene], in [5], the “% degraded” value is listed as 98%. In addition, in data set [6], the “Abiotic loss, %” value is given as 0 (0) %. The “Henry's constants” value in [1] is 0.474. In addition, in [2], the “degradation … on ethanol” value was “degraded” and the “degradation … on methane” value is recorded as “degraded”.
